Experimental data as given in ChEMBL document CHEMBL1134919, “1,3,4-Trisubstituted pyrrolidine CCR5 receptor antagonists. Part 3: polar functionality and its effect on anti-HIV-1 activity” (Bioorg Med Chem Lett, 2002).

Experiments:
[1] = Inhibition (CIC90) of a single HIV-1 (BAL) infection cycle in HeLa Magi cells expressing both CXCR4 and CCR5 receptors over a 48 h period; type: functional; details: Homo sapiens
[2] = biological target: T1, C-C chemokine receptor type 5 (Homo sapiens, UniProt P51681); assay: Concentration that inhibits the entry of HIV-1 in to peripheral blood mononuclear cells (PBMCs) via the antagonism of CCR5 receptor.; type: functional
Target sequence in this assay (P51681 whole entry, looked up): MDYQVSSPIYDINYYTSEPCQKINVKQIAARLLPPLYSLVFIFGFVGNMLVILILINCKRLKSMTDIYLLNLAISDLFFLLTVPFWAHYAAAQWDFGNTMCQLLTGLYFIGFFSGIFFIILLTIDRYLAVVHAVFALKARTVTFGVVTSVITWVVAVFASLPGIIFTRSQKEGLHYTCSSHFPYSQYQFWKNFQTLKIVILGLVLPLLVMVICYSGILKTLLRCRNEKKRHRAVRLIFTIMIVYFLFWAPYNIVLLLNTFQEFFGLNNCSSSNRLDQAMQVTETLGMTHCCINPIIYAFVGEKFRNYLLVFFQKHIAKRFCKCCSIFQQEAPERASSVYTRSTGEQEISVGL

[3] = biological target: T1, C-C chemokine receptor type 5; assay: Displacement of [125I]-labeled MIP-1alpha from the C-C chemokine receptor type 5 expressed on CHO cell membranes.; type: cell-based
Target sequence in this assay (P51681 whole entry): as the sequence (P51681 whole entry, looked up) above

[4] = biological target: T1, C-C chemokine receptor type 5; assay: biochemical; type: cell-based, CHO
Target sequence in this assay (P51681 whole entry): as the sequence (P51681 whole entry, looked up) above

[5] = Half-life period was determined for the compound in rat; type: ADME, organism-based; details: in vivo
[6] = Plasma clearance rate was determined for the compound in rat; type: ADME, organism-based; details: read-out: Clp

| IC90 [1] [nM] | IC50 [4] [nM] | SMILES | further results |
| --- | --- | --- | --- |
| 1 |  | C=CCN(C(=O)OCc1ccc([N+](=O)[O-])cc1)C1CCN(C[C@H]2CN(C(=O)c3ccccc3Cl)C[C@@H]2c2ccccc2)CC1 | IC95 [2]: 31 nM |
|  |  | OC1(CCCc2cccnc2)CCN(C[C@H]2CN(CC3CCCCC3)C[C@@H]2c2ccccc2)CC1 | IC50 [3]: 6 nM |
| 100 | 0.2 | Cn1nnnc1-c1ccc(CCCC2(O)CCN(C[C@H]3CN(CC4CCCCC4)C[C@@H]3c3ccccc3)CC2)cc1 |  |
|  |  | OC1(CCCc2ccncc2)CCN(C[C@H]2CN(CC3CCCCC3)C[C@@H]2c2ccccc2)CC1 | IC50 [3]: 12 nM |
|  |  | OC1(CCCc2ccccn2)CCN(C[C@H]2CN(CC3CCCCC3)C[C@@H]2c2ccccc2)CC1 | IC50 [3]: 7 nM |
| 200 |  | OC1(CCCc2ccccc2)CCN(C[C@H]2CN(CC3CCCCC3)C[C@@H]2c2ccccc2)CC1 | IC95 [2]: 580 nM; IC50 [3]: 0.3 nM |
| > 300 | 0.4 | C[n+]1n[nH]c(-c2ccc(CCCC3(O)CCN(C[C@H]4CN(CC5CCCCC5)C[C@@H]4c4ccccc4)CC3)cc2)n1 |  |
| 4 | 0.2 | OC1(CCCc2ccc(-c3nnn[nH]3)cc2)CCN(C[C@H]2CN(CC3CCCCC3)C[C@@H]2c2ccccc2)CC1 | half-life [5]: 20 min; clearance [6]: 61 mL/min/kg |
| 100 | 1 | OC1(CCCc2ccc(Cc3nnn[nH]3)cc2)CCN(C[C@H]2CN(CC3CCCCC3)C[C@@H]2c2ccccc2)CC1 |  |
| 1000 | 10 | O=C(O)c1ccc(CCCC2(O)CCN(C[C@H]3CN(CC4CCCCC4)C[C@@H]3c3ccccc3)CC2)cc1 |  |
| > 1000 | 3 | O=C(O)c1cccc(CCCC2(O)CCN(C[C@H]3CN(CC4CCCCC4)C[C@@H]3c3ccccc3)CC2)c1 |  |
| 300 | 6 | O=C(O)Cc1cccc(CCCC2(O)CCN(C[C@H]3CN(CC4CCCCC4)C[C@@H]3c3ccccc3)CC2)c1 |  |
| 40 | 2 | O=C(O)CCc1ccc(CCCC2(O)CCN(C[C@H]3CN(CC4CCCCC4)C[C@@H]3c3ccccc3)CC2)cc1 |  |
| 100 | 5 | O=C(O)Cc1ccc(CCCC2(O)CCN(C[C@H]3CN(CC4CCCCC4)C[C@@H]3c3ccccc3)CC2)cc1 |  |
| > 1000 | 100 | O=C(O)c1ccccc1CCCC1(O)CCN(C[C@H]2CN(CC3CCCCC3)C[C@@H]2c2ccccc2)CC1 |  |
